These results are taken from article PMC6255045, “Tyrosinase Inhibitor Activity of Coumarin-Resveratrol Hybrids” (Molecules, 2009).

Structures are written as SMILES. Like-named read-outs stand apart in the source and are kept apart here.

The test system of test [1] is mushroom tyrosinase. Description: Tyrosinase inhibition assay (diphenolase activity, L-DOPA as substrate). The class given is biochemical. Conditions: for tyrosinase inhibitory effect (in words): diphenolase activity; for tyrosinase inhibitory effect (in words) / % inhibition (at 0.8 mM) / IC50: substrate L-DOPA; for % inhibition (at 0.8 mM) / IC50: mushroom tyrosinase; for % inhibition (at 0.8 mM): compound at 0.8 mM. On the procedure: Tyrosinase activity assays were performed with L-DOPA as substrate, as previously described with slight modifications. The pre-incubation with enzyme consisted of a 1/15 M phosphoric acid buffer solution (pH 6.8, 1.8 mL), an aqueous solution of mushroom tyrosinase (1000 U/mL, Sigma Chemical Co., 0.1 mL) and DMSO (0.1 mL) with or without an added sample. The mixture was pre-incubated at 25°C for 10 minutes. Then, a 1.5 mM L-DOPA solution (1 mL) was added and the reaction was monitored at 475 nm for 5 min. The detected absorbance increases accompanying the oxidation of the substrate (L-DOPA). The final concentration of dopaquinone was measured using the molar absorption coefficient of 3,700 M^-1 cm^-1 [31]. One unit of enzymatic activity was defined as the amount of enzyme transforming 1 μmole of L-DOPA per minute. The percentage of inhibition of tyrosinase activity was calculated as inhibition (%) = (A-B)/A×100, where A represents the difference in the absorbance of control sample between an incubation time of 0.5 and 1.0 min, and B represents the difference in absorbance of the test sample between an incubation time of 0.5 and 1.0 min. The activity of mushroom tyrosinase was determinate by spectrophotometric techniques (Varian Cary 50). DMSO inhibitory activity, in the same experimental conditions, was evaluated as 10.7%.

Test [2] has as its target mushroom tyrosinase. Conditions: cited from earlier work.

Regarding `O=c1oc2cc(O)ccc2cc1-c1ccccc1` [Compound 1], in the test on mushroom tyrosinase [1], the “tyrosinase inhibitory effect (in words)” value is “did not inhibit any tyrosinase activity” and the “% inhibition (at 0.8 mM)” value is recorded as 0%.
In the case of `O=c1oc2ccccc2cc1-c1ccc(O)cc1` [Compound 2], in the test with mushroom tyrosinase [1], the “tyrosinase inhibitory effect (in words)” value is “no demonstrable inhibitory effects” and the “% inhibition (at 0.8 mM)” value came to 0%.
Turning to `O=c1oc2cc(O)ccc2cc1-c1ccc(O)cc1` [Compound 3], in the test on mushroom tyrosinase [1], the “tyrosinase inhibitory effect (in words)” value is given as “no demonstrable inhibitory effects” and the “% inhibition (at 0.8 mM)” value is recorded as 9.6%.
`O=c1oc2ccc(O)cc2cc1-c1ccc(O)cc1` [Compound 4, 6-hydroxy-3-(4’-hydroxyphenyl)coumarin]: at mushroom tyrosinase [1], the half-maximal inhibitory concentration (IC50) stood at 1560 µM and the “% inhibition (at 0.8 mM)” value came out at 26.7%.
Turning to `O=c1oc2ccc(O)cc2cc1-c1cc(O)cc(O)c1` [Compound 5], in the test on mushroom tyrosinase [1], the “% inhibition (at 0.8 mM)” value stood at 0%.
Take `O=c1oc2cc(O)ccc2cc1-c1cc(O)cc(O)c1` [Compound 6]: at mushroom tyrosinase [1], half-maximal inhibition (IC50) was put at 3680 µM and the “% inhibition (at 0.8 mM)” value is reported as 19.3%.
On to `O=c1oc2c(O)cc(O)cc2cc1-c1cc(O)cc(O)c1` [Compound 7], for which the “% inhibition (at 0.8 mM)” value with mushroom tyrosinase [1] is listed as 0%.
As to `O=c1oc2c(O)cc(O)cc2cc1-c1cc(O)c(O)c(O)c1` [Compound 8, 3-(3’,4’,5’-trihydroxyphenyl)-6,8-dihydroxycoumarin], at mushroom tyrosinase [1], inhibition was half-maximal at 270 µM (IC50) and the “% inhibition (at 0.8 mM)” value stood at 68.3%. Further, the “type of tyrosinase inhibition (Dixon plot)” value with mushroom tyrosinase [1] (with respect to L-DOPA as substrate at 0.5, 0.25 and 0.1 mM) was “non-competitive”.
As to `O=c1ccc2ccc(O)cc2o1` [Umbelliferone], on mushroom tyrosinase [2] (mushroom tyrosinase, reference compound, ref [20]), the IC50 is 420 µM.
Regarding `O=c1cc(-c2cc(O)c(O)c(O)c2)oc2cc(O)cc(O)c12` [pentahydroxyflavone, 3’,4’,5,5’,7-pentahydroxyflavone], in the test with mushroom tyrosinase [2] (previously reported, ref [29]), the “type of tyrosinase inhibition” value is “competitive inhibitor”.

What is called IC50 is the concentration needed to halve the response being measured.
